Experimental findings from PubChem BioAssay (NCI) are described below.

What all share (experiment): NCI tumour cell line growth inhibition, 48 h
For experiment [1], the system named is HCT-15 colon.
Experiment [2] concerns SK-OV-3 ovarian.
Experiment [3] has as its system A498 renal.
The test system of experiment [4] is CAKI-1 renal.
For experiment [5], the system named is COLO 205 colon.
In experiment [6] the test system is UACC-257 melanoma.
In experiment [7] the test system is RXF 393 renal.
Experiment [8] concerns HOP-62 NSCLC.
Experiment [9] deals with SNB-75 CNS.
The subject of experiment [10] is SN12C renal.
The subject of experiment [11] is OVCAR-5 ovarian.
The test system of experiment [12] is SK-MEL-5 melanoma.
Experiment [13] deals with NCI-H226 lung.
For experiment [14], the system named is ACHN renal.
In experiment [15] the test system is M14 melanoma.
For experiment [16], the system named is T-47D breast.
In experiment [17] the test system is HS 578T breast.

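Where inhibition never reached the appropriate level, the endpoint shown equals the highest concentration tested. Otherwise, values were interpolated linearly from a five-concentration, 48-hour dose response in 96-well plates. At the TGI there is no net growth.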

Turning to `Cc1c2ccncc2c(C)c2c1[nH]c1ccc(OCCN(C)C)cc12`, the TGI in [1] is 0.706 µM; in experiment [2] it was 1.84 µM; in experiment [3], 2.77 µM; in experiment [4], 1.89 µM; in [5], 1.3 µM; in [6], 2.07 µM. Also, the TGI is 0.906 µM in experiment [7]; 1.95 µM in experiment [8]; 1.31 µM in experiment [9]; 1.61 µM in experiment [10]; 1.59 µM in experiment [11]; 3.4 µM in [12]. This compound registered a TGI in [13] of 0.976 µM.
In the case of `CCCCN(C)/N=N/c1nc[nH]c1C(N)=O`, the TGI in experiment [1], in experiment [2], in experiment [3], in experiment [4], in experiment [5] and in [6] was greater than 100 µM throughout. Further, the TGI in experiment [7], in [9], in experiment [10], in experiment [11], in experiment [12] and in [13] was greater than 100 µM throughout.
Consider `O=C1C2C=CC(n3[nH]c(=O)n(Cc4ccccc4)c3=O)CC2C(=O)N1c1ccc(Br)cc1` (centres undefined), for which the TGI in experiment [1], in experiment [2], in experiment [3], in experiment [4], in experiment [5] and in [6] was greater than 100 µM in each case. For the same compound, the TGI in experiment [7], in [8], in experiment [14], in [9], in experiment [10] and in experiment [11] was greater than 100 µM in each case. The TGI in experiment [12], in experiment [15] and in experiment [13] was greater than 100 µM each time.
Turning to `O=C(N=Nc1ccccc1Cl)NNc1ccccc1Cl`, the TGI in [1] is greater than 100 µM; in [3], greater than 100 µM; in experiment [4], greater than 100 µM; in experiment [6] it was greater than 100 µM; in [8], greater than 100 µM; in [14], 92.6 µM. In addition, the TGI in experiment [9], in experiment [10], in [11], in experiment [12], in experiment [15] and in [16] was greater than 100 µM in each case. Also, the TGI in [13] was greater than 100 µM.
For the compound `O=c1c2ccccc2nc2ccc3c(Cl)[nH][nH]c3c12`, the TGI was greater than 100 µM in [1]; greater than 100 µM in experiment [2]; greater than 100 µM in [3]; 85.3 µM in [4]; greater than 100 µM in experiment [5]; greater than 92.7 µM in [6]. Moreover, the TGI was greater than 100 µM in [7]; greater than 100 µM in experiment [8]; greater than 100 µM in [14]; greater than 100 µM in [9]; greater than 100 µM in experiment [10]; 98 µM in experiment [11]. The results for the TGI in experiment [12], in experiment [15] and in experiment [13] were greater than 100 µM, greater than 100 µM and greater than 48.4 µM, respectively.
For the compound `O=C(O)c1ccccc1C1c2ccccc2Oc2ccccc21`, the TGI is greater than 100 µM in experiment [1]; 82.1 µM in [3]; greater than 100 µM in experiment [4]; greater than 100 µM in experiment [6]; greater than 100 µM in experiment [7]; greater than 100 µM in experiment [8]. The TGI in experiment [14] was greater than 100 µM; in [9], 85.8 µM; in [10], greater than 100 µM; in [11] it was greater than 100 µM; in [12], greater than 100 µM; in experiment [15], greater than 100 µM. Also, the TGI was greater than 100 µM in experiment [16] and 65.7 µM in [13].
On to `CC1(C)C=C(/C=N/Nc2ccccc2)C(C#N)=C(O)C1(C#N)C#N`, for which the TGI in [2], in experiment [3], in experiment [4], in experiment [5], in experiment [17] and in experiment [6] was greater than 100 µM in each case. Further, the TGI in experiment [7], in experiment [8], in [14], in [9], in experiment [10] and in experiment [11] was greater than 100 µM each time. For the same compound, the TGI in experiment [12], in experiment [15] and in [13] was greater than 100 µM throughout.
Regarding `COc1ccc2cc(C(C)C(=O)N3C(=O)OCC3(C)C)ccc2c1` (centres undefined), the TGI in [1], in experiment [2], in experiment [3], in experiment [5], in experiment [6] and in [8] was greater than 100 µM in each case. Besides, the TGI in [14], in experiment [9], in experiment [10], in [11], in experiment [12] and in experiment [15] was greater than 100 µM in each case. The TGI in [16] and in [13] was greater than 100 µM in each case.
Turning to `CCC(=O)OC1CCn2c1nc1c2C(=O)C(C)=C(NC(C)=O)C1=N` (centres undefined), the TGI in experiment [1] came to 6.27 µM; in [2], 6.82 µM; in [3], 4.21 µM; in experiment [4], 1.94 µM; in [5], 3.18 µM; in [6] it was 2.5 µM. Also, the TGI in experiment [8] was 3.47 µM; in experiment [14], 3.95 µM; in experiment [9], 4.45 µM; in experiment [10] it was 3.02 µM; in experiment [11] it was 3.47 µM; in [12], 2.55 µM. The compound also showed a TGI in experiment [13] of 4.63 µM.
